Data reported in patent EP3233102B1, “USE OF AN ANTIMICROBIAL PEPTIDE TO INDUCE CELL DEATH IN BREAST CANCER” (Bolkent, Sehnaz, priority 2014, dated 2024).
Where a SMILES comes first, the peptide text is derived from it. Bridges are numbered along the chain shown (N, C = ends). Where no end group is shown, it is not given here.

How the values were obtained:
[1] = tested on: emryonic neurons of rats; details: cited from earlier work
[2] = tested on: human glioblastoma cells; details: cited from earlier work
[3] = tested on: MCF-7 cells; assay: Lactate dehydrogenase (LDH) release cytotoxicity assay; type: cell-based; details: 24 hours, FIG. 4
Excerpt: (§1) The lactate dehydrogenase (LDH) release assay was used to measure cytotoxicity. Lactate dehydrogenase (LDH) is a stable cytoplasmic enzyme present in most cells. During damage to or rupture of cell cytoplasmic membranes, LDH is released from cells and into the surrounding cell culture supernatant. Quantitation of LDH in cell culture supernatant was used to measure cellular toxicity levels.
Both MCF-7 and control (normal) cells were detached from 75 cm^2 flasks with trypsin-EDTA and centrifuged. Cells were resuspended in cell culture media and diluted to a concentration of 50 cells/ µl 100 µl of cell suspension was transferred to each well of a 96-well plate. Three wells of cells were used for each concentration of cyclic dodecapeptide. The asay was performed in triplicates. […] The media of the experiment groups was replaced with media containing 50, 100, or 200 µg/ml of cyclic dodecapeptide. After the cells were incubated with cyclic dodecapeptide for 24 hours, the activity of released lactate dehydrogenase was detected following manufacture prototol. 5 µl of lysis solution (2% Triton-X-100) was added to each well. The plate was incubated at 37 °C for 15 minutes. 100 µ ? of freshly prepared reaction mixture containing catalyst (Diaphoresis NAD^+mixture) and dye solution (iodotetrazolium chloride (INT) and sodium lactate) was added to each well. After incubation in dark at room temperature for 30 minutes, the reaction was stopped by adding 50 µl of stopping solution (IN HCl) to each well. Plates were shaken in an orbital shaker for 10 seconds. Spectrophotometric absorbance was measured at 490 nm test wavelength and 690 nm reference wavelength. The results were determined as % cytotoxicity. The average absorbance value of the negative control group (no cyclic dodecapeptide added) was subtracted from each of the experiment groups. […] The control and experiment groups were compared relative to the positive control group, and their cytotoxicities were measured by using the formula below: % Cytotoxicity = ([Experiment−NegativeControl])/([PositiveControl−NegativeControl])∗100 [formula]

[4] = tested on: control (normal) cells; assay: Lactate dehydrogenase (LDH) release cytotoxicity assay, control group; type: cell-based
Excerpt: as §1
Both MCF-7 and control (normal) cells were detached from 75 cm^2 flasks with trypsin-EDTA and centrifuged. Cells were resuspended in cell culture media and diluted to a concentration of 50 cells/ µl 100 µl of cell suspension was transferred to each well of a 96-well plate. Three wells of cells were used for each concentration of cyclic dodecapeptide. The asay was performed in triplicates. […] The media of the experiment groups was replaced with media containing 50, 100, or 200 µg/ml of cyclic dodecapeptide. After the cells were incubated with cyclic dodecapeptide for 24 hours, the activity of released lactate dehydrogenase was detected following manufacture prototol. 5 µl of lysis solution (2% Triton-X-100) was added to each well. The plate was incubated at 37 °C for 15 minutes. 100 µ ? of freshly prepared reaction mixture containing catalyst (Diaphoresis NAD^+mixture) and dye solution (iodotetrazolium chloride (INT) and sodium lactate) was added to each well. After incubation in dark at room temperature for 30 minutes, the reaction was stopped by adding 50 µl of stopping solution (IN HCl) to each well. Plates were shaken in an orbital shaker for 10 seconds. Spectrophotometric absorbance was measured at 490 nm test wavelength and 690 nm reference wavelength. The results were determined as % cytotoxicity. The average absorbance value of the negative control group (no cyclic dodecapeptide added) was subtracted from each of the experiment groups. A positive control group for maximum LDH release was used as 100% cytotoxicity. The control and experiment groups were compared relative to the positive control group, and their cytotoxicities were measured by using the formula below: % Cytotoxicity = ([Experiment−NegativeControl])/([PositiveControl−NegativeControl])∗100 [formula]

[5] = tested on: MDA-MB 231 cells; assay: Lactate dehydrogenase (LDH) release cytotoxicity assay; type: cell-based; details: 24 hours, FIG. 5

Row | Compound | cytotoxicity [1] | cytotoxicity [2] | release of lactate dehydrogenase, % cytotoxicity, MCF-7 group ([3]; 50 µg/ml) [%] | release of lactate dehydrogenase, % cytotoxicity, MCF-7 group ([3]; 100 µg/ml) [%] | release of lactate dehydrogenase, % cytotoxicity, MCF-7 group ([3]; 200 µg/ml) | release of lactate dehydrogenase, % cytotoxicity, control group ([4]; 50 µg/ml, FIG. 4 (control group to MCF-7)) [%] | release of lactate dehydrogenase, % cytotoxicity, control group ([4]; 50 µg/ml, FIG. 5 (control group to MDA-MB 231)) [%] | release of lactate dehydrogenase, % cytotoxicity, control group ([4]; 100 µg/ml, FIG. 4 (control group to MCF-7)) [%] | release of lactate dehydrogenase, % cytotoxicity, control group ([4]; 100 µg/ml, FIG. 5 (control group to MDA-MB 231)) [%] | release of lactate dehydrogenase, % cytotoxicity, control group ([4]; 200 µg/ml, FIG. 4 (control group to MCF-7)) [%] | release of lactate dehydrogenase, % cytotoxicity, control group ([4]; 200 µg/ml, FIG. 5 (control group to MDA-MB 231)) [%] | release of lactate dehydrogenase, % cytotoxicity, MDA-MB 231 group ([5]; 50 µg/ml) [%] | release of lactate dehydrogenase, % cytotoxicity, MDA-MB 231 group ([5]; 100 µg/ml) [%] | release of lactate dehydrogenase, % cytotoxicity, MDA-MB 231 group ([5]; 200 µg/ml) [%]
1 | bactenecin (RLCRIVVIRVCR; disulfide 3-11; UniProt P22226 144-155, looked up) | strongly cytotoxic | strongly cytotoxic | – | – | – | – | – | – | – | – | – | – | – | –
2 | CC[C@H](C)[C@@H]1NC(=O)[C@H](CCCNC(=N)N)NC(=O)[C@@H](NC(=O)[C@H](CC(C)C)NC(=O)[C@@H](N)CCCNC(=N)N)CSSC[C@@H](C(=O)N[C@@H](CCCNC(=N)N)C(=O)O)NC(=O)[C@H](C(C)C)NC(=O)[C@H](CCCNC(=N)N)NC(=O)[C@H]([C@@H](C)CC)NC(=O)[C@H](C(C)C)NC(=O)[C@H](C(C)C)NC1=O [cyclic dodecapeptide, RLCRIVVIRVCR] (H-RLCRIVVIRVCR-OH; disulfide 3-11) | – | – | 20.11±8.3 | 76.22±4.1 | 61.55+4% | 12.8±1.9 | 3.9±0.9 | 13.36±1.5 | 4.73±1.7 | 12.07±1.4 | 4.8±1.3 | 19.1±1.9 | 17.1±2.2 | 33.93±9
